Data set [1] concerns Rattus norvegicus. Description: Toxicity in ip dosed F344 rat lateral thorax transplanted with dorsal skin of LEW rat assessed as concentration required for cause death. Type of data set: organism-based. The settings on record: in vivo.
Data set [2] has as its system Rattus norvegicus. Description: Immunosuppressive activity in F344 rat lateral thorax transplanted with dorsal skin of LEW rat assessed as increase of skin graft survival time at 1 mg/kg, ip. The data set is classed as functional. The settings on record: route intraperitoneal.
For data set [3], the system named is Rattus norvegicus. As to the kind of experiment: Immunosuppressive activity in F344 rat lateral thorax transplanted with dorsal skin of LEW rat assessed as increase of skin graft survival time at 3 mg/kg, ip. Type of data set: functional. The note with it: route intraperitoneal.
A short description of data set [4]: Immunosuppressive activity in BALB/c/C57BL/6 mouse T cells assessed as inhibition of alloantigen-induced cell proliferation after 96 hrs by measuring [3H]thymidine uptake by mixed lymphocyte reaction assay. The data set is classed as functional, cell-based. The settings on record: BALB/c/C57BL/6, T-cell.
The subject of a further data set is spleen. As to the kind of experiment: Inhibition of serine palmitoyltransferase in mouse spleen cells. The data set is classed as cell-based.
Data set [5] concerns Rattus norvegicus. Description: Immunosuppressive activity in rat assessed as increase of skin graft survival time at 0.1 mg/kg. The data set is classed as functional.
A further data set relates to MCF7. As to the kind of experiment: Antiproliferative activity against human MCF7 cells assessed as growth inhibition after 78 hrs by WST-1 assay. Type of data set: functional, cell-based.
In another data set the test system is MDA-MB-231. Description: Antiproliferative activity against human MDA-MB-231 cells assessed as growth inhibition after 78 hrs by WST-1 assay. The data set is classed as functional, cell-based.
The subject of a further data set is SK-BR-3. Description: Antiproliferative activity against human SK-BR-3 cells assessed as growth inhibition after 78 hrs by WST-1 assay. The data set is classed as functional, cell-based.
The subject of the next data set is HCT-116. Description: Antiproliferative activity against human HCT116 cells assessed as growth inhibition after 78 hrs by WST-1 assay. Type of data set: functional, cell-based.
For a further data set, the system named is SW-620. As to the kind of experiment: Antiproliferative activity against human SW620 cells assessed as growth inhibition after 78 hrs by WST-1 assay. Type of data set: functional, cell-based.
A short description of data set [6]: (§1) Antiproliferative activity human LNCAP-AI cells assessed as growth inhibition after 78 hrs by WST-1 assay. Type of data set: functional, cell-based.
The next data set relates to MGC-803. Description: Antitumor activity against human MGC803 cells xenografted in nude mouse assessed as inhibition of tumor growth at 10 mg/kg for 20 days. Type of data set: functional, organism-based. More on the design: dose 10 mg/kg.
In the next data set the test system is Mus musculus. Description: Toxicity in human MGC803 cells xenografted nude mouse at 10 mg/kg for 20 days. Type of data set: organism-based, MGC-803. Also noted: dose 10 mg/kg. The settings on record: in vivo, 480 h.
A further data set relates to LNCAP-AI. Described as §1. Type of data set: functional, cell-based.

Activity calls are given as the source filed them. The calls are words filed in the database; no cut-off is given here.

With `CCCCCCC(O)CCCCCCCCC[C@@H](O)[C@H](O)C(N)(CO)CO` (stereo partly drawn), the Activity in the data set on Rattus norvegicus [1] was 100 mg/kg. The values for the Time in the data set on Rattus norvegicus [2] and in the data set with Rattus norvegicus [3] were 9.2 days and 11 days, respectively.

Turning to `CCCCCCC(=O)CCCCCC/C=C/C[C@@H](O)[C@H](O)[C@@](N)(CO)C(=O)O` [MYRIOCIN], in data set [4], the half-maximal inhibitory concentration (IC50) was 0.003 µM. The Activity in the data set on Rattus norvegicus [1] is 1 mg/kg. The inhibition result in the data set on spleen is “Active”. Further, the Time with Rattus norvegicus [5] turned out to be 2 days.

As to `C/C=C/C[C@@H](C)[C@@H](O)[C@H]1C(=O)N[C@@H](CC)C(=O)N(C)CC(=O)N(C)[C@@H](CC(C)C)C(=O)N[C@@H](C(C)C)C(=O)N(C)[C@@H](CC(C)C)C(=O)N[C@@H](C)C(=O)N[C@H](C)C(=O)N(C)[C@@H](CC(C)C)C(=O)N(C)[C@@H](CC(C)C)C(=O)N(C)[C@@H](C(C)C)C(=O)N1C` [CYCLOSPORINE], the Time is 7.3 days with Rattus norvegicus [2] and 10.8 days in the data set with Rattus norvegicus [3].

For `CCCCCCCCCCCCCCCCCCC(N)(CO)CO`, in the data set with Rattus norvegicus [1], the Activity came to 10 mg/kg.

`CCCCCCCCc1ccc(CCC(N)(CO)CO)cc1` [FINGOLIMOD]: the IC50 in [4] came to 0.0061 µM; with MCF7 (MCF7, 78 h), 5 µM; with MDA-MB-231 (MDA-MB-231, 78 h), 5 µM; with SK-BR-3 (SK-BR-3, 78 h) it was 5 µM; with HCT-116 (HCT-116, 78 h), 5 µM; in the data set with SW-620 (SW-620, 78 h), 5 µM. In data set [6], the IC50 amounted to 5 µM. For the same molecule, the values for the Time in the data set on Rattus norvegicus [2] and in the data set with Rattus norvegicus [3] were 39.5 days and 52 days, respectively. Moreover, the inhibition entry in the data set on spleen is “inactive”. The “growth inhibition (GI)” value in the data set on MGC-803 is “Active”. In the data set on Mus musculus, the Activity result is on record as “Toxic”.

On to `CCCCCCCCc1ccc(CC[C@](N)(/C=C/P(=O)(O)O)CO)cc1`, for which the “growth inhibition (GI)” value with MCF7 and with LNCAP-AI was “inactive” each time.

Take `CCCCCCCCc1ccc(CC[C@](N)(CO)COP(=O)(O)O)cc1`: the “growth inhibition (GI)” value in the data set on MCF7, with MDA-MB-231, in the data set with SK-BR-3, with HCT-116 and in the data set on SW-620 was “inactive” throughout.

Take `CCCCCCCCCCCCCCC(N)(CO)CO`: the Activity in the data set on Rattus norvegicus [1] came to 10 mg/kg. Further, the Time was found to be 37.3 days in the data set on Rattus norvegicus [2] and 45.5 days in the data set on Rattus norvegicus [3]. In addition, the inhibition result in the data set with spleen was “inactive”.

Source of the values: ChEMBL document CHEMBL1772937, “Fingolimod (FTY720): a recently approved multiple sclerosis drug based on a fungal secondary metabolite” (J Nat Prod, 2011).
